Reference: US7202282B2, “Microemulsions for selective molecular separation” (University of Florida, priority 2002, dated 2007)

Assay: selective molecular separation (partitioning) of local anesthetics by a microemulsion having an electron deficient aromatic ring
Type: physicochemical
Settings: microemulsion with electron deficient ring oil, e.g. 1,3 di(trifluoromethyl) benzene
Description: In one embodiment, the materials and/or methods of the subject invention can be used to separate drugs of the same class. A specific embodiment involves separating local anesthetics. […] This is accomplished by exploiting differences in electron density in π electron orbitals.
In these molecules, the π electron orbitals are aligned at right angles to the planar surface of the benzene rings. Differences in substitution by the side chain in cocaine or bupivacaine cause either electron depletion (δ^+) or enrichment (δ^−). Such characteristics can be used to selectively separate these molecules.
According to the subject invention, any oil or “mating” molecule with a benzene ring is acceptable in providing a microemulsion system, as long as the substitutions are electron withdrawing from the benzene ring into the side chains. In this case, the electron deficient ring is a component of a molecule (e.g., 1,3 di(trifluoromethyl) benzene) that, at room and physiological temperatures, is an oil (FIG. 3). Thus, these oil molecules can be used to construct the lipid core of a microemulsion or may be added as solutes into the lipid core of a microemulsion wherein another oil serves as the lipid core.

SMILES: CCCCN1CCCCC1C(=O)Nc1c(C)cccc1C (stereo not shown) [bupivacaine]
- partitioning into the microemulsion (molecular separation, FIG. 4): selectively partition
